EPA's CvTdb concentration-time database (doi:10.5012/bkcs.2003.24.5.559)

Tested on: rat
Assay: concentration in urine after dosing
Details: dosed: benzo(a)pyrene, 20 mg/kg, iv, male, Sprague-Dawley

Oc1ccc2ccc3cc4ccccc4c4ccc1c2c34 [1-hydroxybenzo(a)pyrene]
Details	concentration in urine [ng/mL]
3.699 h	0.371
7.645 h	0.0295
10.85 h	0.0167
22.69 h	1.58
28.98 h	3.02
34.9 h	5.24
46.73 h	2.31
52.9 h	2.18
58.94 h	1.1
77.07 h	0.514
94.7 h	0.0397

Oc1ccc2ccc3c4ccccc4cc4ccc1c2c43 [3-hydroxybenzo(a)pyrene]
Details	concentration in urine [ng/mL]
4.071 h	0.145
8.015 h	0.0241
23.16 h	5.11
28.88 h	6.99
35.11 h	8.63
47.07 h	6.84
52.93 h	6.1
59.03 h	2.19
76.84 h	0.0482
95.04 h	0.289

c1ccc2c(c1)cc1ccc3cccc4ccc2c1c34 [benzo(a)pyrene]
Details	concentration in urine [ng/mL]
4.13 h	3.27
7.866 h	0.98
11.07 h	0.98
23.06 h	10.1
29.09 h	126
35.2 h	1.96
47.07 h	0.98
52.8 h	0.654
58.8 h	0.654
76.8 h	0.654
94.93 h	0.654
